Laboratory results taken from patent US20250388607A1, “A BROMOTAG-BASED TOOLKIT FOR RAPID INDUCTION OF CHEMICALLY INDUCED PROXIMITY” (THE BOARD OF TRUSTEES OF THE LELAND STANFORD JUNIOR …, priority 2024, published 2025).
Entries after “also recorded” stand apart in the source; their conditions may differ.

Columns and labels:
FKBP12F36V and BromoTag = molecular target: T1, FKBP12F36V and BromoTag (Homo sapiens, UniProt O60885+P62942, F37V/L387A); test: NanoBiT assay, FKBP/BromoTag heterodimerization, tags expressed alone; type: cell-based; conditions: all LgBiT and SmBiT tag orientations; FIGS. 1A-1D; HEK293T
T1 construct: BRD4 BD2 L387A mutant tag; LgBiT or SmBiT (NanoBiT subunit); expressed in transfected cells; host or cells: HEK293T
T1 sequence (P62942 whole entry F37V, other chains not shown): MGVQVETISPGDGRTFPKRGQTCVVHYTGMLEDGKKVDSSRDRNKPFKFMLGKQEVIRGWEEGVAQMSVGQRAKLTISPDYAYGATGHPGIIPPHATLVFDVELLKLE
Text: (§1) FKBP/BromoTag NanoBiT-tagged construct cloning. FKBP12F36V and BromoTag sequences were cloned using Gibson assembly into pBiT1.1-C [TK/LgBiT], pBiT2.1-C [TK/SmBiT], pBiT1.1-N [TK/LgBiT], and pBiT2.1-N [TK/SmBiT] vectors included in the NanoBiT® PPI MCS Starter System kit (Promega #N2014). […] pBiT1.1 and pBiT2.1 vectors were linearized at EcoRI and NheI cut sites, inserts were amplified with PCR, and constructs were ligated using NEBuilder® HiFi DNA Assembly Master Mix.
NanoBiT assay. 15k HEK293T cells per well were plated in 92 ul DMEM+10% FBS in opaque 96-well plates and allowed to adhere overnight, approximately 18-24 hours. HEK293T cells were subsequently transfected with pBiT1.1 (LgBiT-tagged) or pBiT2.1 (SmBiT-tagged) FKBP12F36V and/or BromoTag vectors, using TransIT-LT1 transfection reagent (Mirus #MIR2300) and Opti-MEM (Gibco #31985062). After 24 hours, 25 ul Nano-Glo® Live Cell Reagent was added to each well to measure dimerization signal. Using a PHERAstar FSX, baseline luminescence was measured for five or six cycles (approximately eight to ten minutes). Test dimerizer compounds freshly diluted in DMEM+10% FBS were then manually spiked in and induced luminescence was measured continuously for up to two hours. […]

BromoTag = molecular target: T2, BromoTag (Homo sapiens, UniProt O60885, L387A); test: NanoBiT assay, BromoTag homodimerization, tag expressed alone; type: cell-based; conditions: all orientations of LgBiT and SmBiT tags; FIGS. 4A-4D and 5; high background
T2 construct: BRD4 BD2 L387A mutant tag; expressed in transfected cells; host or cells: HEK293T
Text: as §1
NanoBiT assay. 15k HEK293T cells per well were plated in 92 ul DMEM+10% FBS in opaque 96-well plates and allowed to adhere overnight, approximately 18-24 hours. HEK293T cells were subsequently transfected with pBiT1.1 (LgBiT-tagged) or pBiT2.1 (SmBiT-tagged) FKBP12F36V and/or BromoTag vectors, using TransIT-LT1 transfection reagent (Mirus #MIR2300) and Opti-MEM (Gibco #31985062). After 24 hours, 25 ul Nano-Glo® Live Cell Reagent was added to each well to measure dimerization signal. Using a PHERAstar FSX, baseline luminescence was measured for five or six cycles (approximately eight to ten minutes). Test dimerizer compounds freshly diluted in DMEM+10% FBS were then manually spiked in and induced luminescence was measured continuously for up to two hours. All summary figures were generated with GraphPad Prism. Data for the NanoBit assay is provided in FIGS. 1A-1D, 2A-2B, 3A-3B, 4A-4D, 5, 6A-6B, 7, and 12A-12C.

Row | Compound | max dimerization signal compared with FKBP12WT/FRB-rapamycin (sirolimus) control (FKBP12F36V and BromoTag) | max dimerization signal compared with DMSO (BromoTag) | max dimerization signal compared with FKBP12WT/FRB-rapamycin control (BromoTag)
1 | CC[C@H](C(=O)N1CCCC[C@H]1C(=O)O[C@H](CCc1ccc(OC)c(OC)c1)c1cccc(OCC(=O)NCCCCCCNC(=O)[C@H](CC)[C@@H]2N=C(c3ccc(Cl)cc3)c3c(sc(C)c3C)-n3c(C)nnc32)c1)c1cc(OC)c(OC)c(OC)c1 [MMH-04-74, (R)-1-(3-(2-((6-((R)-2-((S)-4-(4-chlorophenyl)-2,3,9-trimethyl-6H-thieno[3,2-f][1,2,4]triazolo[4,3-a][1,4]diazepin-6-yl)butanamido)hexyl)amino)-2-oxoethoxy)phenyl)-3-(3,4-dimethoxyphenyl)propyl (S)-1-((S)-2-(3,4,5-trimethoxyphenyl)butanoyl)piperidine-2-carboxylate] | dramatically higher max dimerization signal | – | –
2 | CC[C@@H](C(=O)NCCCCCCNC(=O)[C@H](CC)[C@@H]1N=C(c2ccc(Cl)cc2)c2c(sc(C)c2C)-n2c(C)nnc21)[C@@H]1N=C(c2ccc(Cl)cc2)c2c(sc(C)c2C)-n2c(C)nnc21 [MMH-05-01-02, (2R,2′R)-N,N′-(hexane-1,6-diyl)bis(2-((S)-4-(4-chlorophenyl)-2,3,9-trimethyl-6H-thieno[3,2-f][1,2,4]triazolo[4,3-a][1,4]diazepin-6-yl)butanamide)] | – | improved max dimerization signal over DMSO; also recorded: in most NanoBiT tag orientations have improved signal over DMSO | significantly higher signal; also recorded: outperformed existing FKBP12WT/FRB-rapamycin heterodimerization system
3 | CC[C@@H](C(=O)NCCOCCOCCNC(=O)[C@H](CC)[C@@H]1N=C(c2ccc(Cl)cc2)c2c(sc(C)c2C)-n2c(C)nnc21)[C@@H]1N=C(c2ccc(Cl)cc2)c2c(sc(C)c2C)-n2c(C)nnc21 [MMH-05-01-03, (2R,2′R)-N,N′-((ethane-1,2-diylbis(oxy))bis(ethane-2,1-diyl))bis(2-((S)-4-(4-chlorophenyl)-2,3,9-trimethyl-6H-thieno[3,2-f][1,2,4]triazolo[4,3-a][1,4]diazepin-6-yl)butanamide)] | – | improved max dimerization signal over DMSO; also recorded: in most NanoBiT tag orientations have improved signal over DMSO | significantly higher signal; also recorded: outperformed existing FKBP12WT/FRB-rapamycin heterodimerization system
